Where two headings read alike, the source gives them in different places. Values belong to the molecule of their own block, whether it stands above or below them.
Assays:
[1] = tested on: carcinoma human T24 bladder cells; design: method as in PMID 37569273; details: T24 bladder cells vs other cell lines; cited from earlier work
HeLa cells [2] = details: cited from earlier work
HeLa cells [3] = assay: MTT cell viability assay, HeLa cells; assay type: cell-based, human; details: 48 h incubation, mean ± SD, stock in DMSO (3-Cl and cisplatin in water)
Procedure: (§1) Cell viability tests of the ligand and metal precursors (pqhyme, pqca, pcqame, [Ru(η^6-p-cymene)(μ-Cl)Cl]2) and the ruthenium(II)–arene complexes 1-Cl, 2-Cl and 3-Cl were conducted in two cell lines, including epithelial-like HEK293T cells (human embryonic kidney cells) and tumor-derived HeLa cells (cervical cancer cells), by MTT colorimetric assay, after 48 h incubation (MTT = 3-(4,5-dimethylthiazol-2-yl)-2,5-diphenyl tetrazolium bromide). For comparison, the 3-PF6 analog was also studied. Generally, a 5 to 10 mM stock solution of the complexes in DMSO (H2O for cisplatin) was prepared and diluted appropriately to reach the final concentration reported in the Materials and Methods. HeLa cancer cells were chosen since this cell line is widely used in cytotoxicity studies while the non-cancerous HEK293T cell line was used for comparison. Cytotoxicity results of all substances studied in both cell lines expressed as IC50 mean values, are summarized in Table 1, including that of cisplatin, which served as control under the same conditions. The IC50 values were calculated using a dose–response model, which was obtained from sigmoidal fitting of dose–response curves.
(§2) The HEK293T cell line (immortalized human embryonic kidney cells) and the HeLa cell line (cervical cancer cells) were obtained from ATCC. Cells were cultured at 37 °C and 5% CO2 in high glucose Dulbecco’s modified Eagle’s medium (DMEM) containing 10% fetal bovine serum (FBS), penicillin (100 units/mL), and streptomycin (100 μg/mL).
(§3) Ruthenium complexes were diluted in stock solutions of 10 mM in dimethyl sulfoxide (DMSO). A similar concentration of cisplatin dissolved in H2O was used. Cells were seeded in sterile tissue culture 96-well plates at a density of 3,000 cells per well. After 24 h, the medium was removed and replaced with fresh media containing various concentrations (0.01 μΜ, 0.1 μΜ, 1 μΜ, 10 μΜ, 25 μΜ, 40 μΜ, 55 μΜ, 70 μΜ, 85 μΜ, and 100 μΜ) of the compounds to be tested and were further incubated for 48 h at 37 °C. DMSO was used as vehicle at ≤1%. Culture medium containing the compounds (or DMSO) was removed and 100 μL of 0.5 mg/mL MTT reagent (Applichem) diluted in DMEM was added to the cells for 3 h at 37 °C. After 3 h incubation, MTT was removed and 200 μL of DMSO was added. Absorbance values of formazan were measured at 540 nm using a BioTek Synergy H1 microplate reader (Agilent). All compounds were tested in triplicate. The results were statistically analyzed using the nonlinear regression by GraphPad PRISM (Version 9) to extract IC50 values.

HEK293T cells = assay: MTT cell viability assay, HEK293T cells; assay type: cell-based, human; details: 48 h incubation, mean ± SD, stock in DMSO (3-Cl and cisplatin in water)
Procedure: as §1, §2, §3

[4] = Solution stability by UV-Vis spectroscopy; assay type: physicochemical; details: for Stability in the media used for the biological assays (UV-Vis): DMSO, ambient temperature
Procedure: To ensure the stability of the complexes for the in vitro cytotoxicity measurements, UV–Vis and ^1H NMR spectroscopic techniques were undertaken. UV–Vis spectra were recorded in DMSO (not dry), for complexes 1-Cl and 2-Cl (Figures S25–S27) and in water for complex 3-Cl (Figure 3), at ambient temperature, immediately after dissolution. The absorption spectra of 1-Cl and 2-Cl show a broad absorption band centered at ~ 435 nm, as reported for other ruthenium(II) half-sandwich arene complexes. For 3-Cl, this band becomes weaker and is blue-shifted to 422 nm. Ongoing from 1-Cl to 3-Cl, the set of high energy bands observed at 354 nm/296 nm (1-Cl), 357 nm/298 nm (2-Cl), and 357 nm/293 nm (3-Cl), are typical of metal-to-ligand charge transfer absorption bands (MLCT) and ligand-centered π–π* transitions. Within the series, ε values for these transitions range from 3000 to 9600 dm^3 mol^−1 cm^−1, with the methyl ester analog 3-Cl, displaying the higher extinction coefficient value of ∼9600 dm^3 mol^−1 cm^−1.
(§4) The cytotoxicity studies of the organometallic ruthenium(II) complexes 1-Cl, 2-Cl, and 3-PF6 were carried out in dimethyl sulfoxide (DMSO) while 3-Cl was dissolved in water. According to UV–Vis spectroscopy, complexes 1-Cl and 2-Cl are stable in the media that are used for the biological assays (Figures S25–S26), while 3-Cl undergoes hydrolysis approximately 3 h after with isosbestic points at 276 nm and 322 nm, respectively (Figure S27). […] In any case, for the biological assays, freshly prepared solutions were prepared that were utilized within approximately 5–10 min.

Solubility (qualitative) = assay type: physicochemical; details: solvents
Procedure: The mononuclear organometallic complex 1-Cl comprising the pqhyme ligand was isolated as an orange–brown solid in high yield. […] Subsequent treatment with a saturated aqueous KPF6 solution afforded, via a metathesis reaction, the hexafluorido analog 1-PF6. Both complexes are air-stable in the solid state and melt with decomposition at 155 °C and 137 °C, respectively. The FT-IR spectra (ATR mode) of both complexes are almost identical, as expected for complexes that display very similar structures. For 1-Cl the presence of water of crystallization is evident from the intense and broad bands at ∼3350–3250 cm^−1 due to the antisymmetric and symmetric ν(O-H) stretching vibration modes. The O–H stretching vibration band from pending -CH2OH moiety is hampered within the broadness of the band reported above. Also, the strong band at approximately 1650 cm^−1 is due to the δ(H–O-H) bending mode. The characteristic bands at 3061 cm^−1, and in the region of 2998–2850 cm^−1 correspond to ν(C–H) aromatic and aliphatic stretching vibrations modes of the ligand, while the medium intensity band at ∼800 cm^−1 is typical for the stretching vibration mode of ν(Ru–C). In the region of 800-600 cm^−1, the spectrum is dominated by the very strong in-plane and out-of-plane deformation bands from the pyridine ring of pqhyme ligand. For 1-PF6, the two very strong bands at 840 cm^−1 and 557 cm^−1 are assigned to the ν3(P–F) and ν4(P–F) vibration modes of the PF6^− anion (Figure S1 of the Supplementary Materials).
The [Ru(η^6-p-cymene)(pqca)Cl]Cl complex 2-Cl was isolated in 85% yield as an orange–red air-stable solid that melts at 125 °C. Upon further heating, decomposition occurs at 150 °C, accompanied by gas evolution, leading to a black solid.
The [Ru(η^6-p-cymene)(pqcame)Cl]Cl analog 3-Cl was isolated almost quantitatively as a dark brown air-stable solid that decomposes at 111 °C. […] The FT-IR spectrum of 3-Cl is characterized by a strong asymmetric stretching vibration typical of the νas(C=O) of the ester moiety at 1722 cm^−1, shifted to higher wave numbers compared with 2-Cl. […]

[5] = Solution stability by 1H NMR spectroscopy; assay type: physicochemical
Text: The solution NMR spectra (^1H and ^13C{^1H}) of 1-Cl and 1-PF6 in CDCl3 feature the characteristic set of resonances of the pqhyme and p-cymene ligands supporting the proposed formulae of the compounds (Figures S2–S5 of the Supplementary Materials). Atom numbering for NMR assignment is included in Scheme 1. […] The separate and well-resolved resonance signals at δ 5.92–5.61 in a ratio of 1:1:1:1 (according to integration) are typical of the p-cymene ring protons. The characteristic singlet resonance signals at δ 5.47 for 1-Cl and 5.48 for 1-PF6 are attributed to the -CH2 protons of the pending -CH2OH moiety. These were upfield shifted compared to the p-cymene ligand of the metal precursor [43]. In addition, the septet resonance signals at δ 2.29 for 1-Cl and δ 2.44 for 1-PF6 are indicative of the -CH(CH3)2 proton, while the two […] at δ 0.87/0.91 (1-Cl) and δ 0.93/0.97 (1-PF6) can be assigned to the methyl protons of the isopropyl group. For 1-Cl, and after two days of standing in CDCl3, free p-cymene was detected (c.a. 2.6%) along with the formation of new unknown species. The ^1H NMR pattern of the spectrum remained practically unchanged (Figure S7).
The ^1H NMR spectrum of 2-Cl was recorded in DMSO-d6 at ambient temperature. […] The stability of 2-Cl in DMSO is shown below in Section 2.1.1. […] The singlet resonance at δ 8.94 is typical for H3 of the bidentate ligand, while the four separate doublet resonance signals in between δ 6.19, 6.13, 6.03, and 5.97 correspond to the p-cymene ring protons. […] In this region, the CH3 protons of the -CH-(CH3)2 moiety appear as two doublet resonances at δ 0.81 and 0.77, respectively. The ^13C NMR signals of 2-Cl were assigned by two-dimensional ^1H–^13C HSQC and ^1H–^13C HMBC methods and compared with the literature data from similar complexes. […] Analyzing the spectrum, the resonance signal at δ 166.31 is assigned to the carbon atom of the carboxylic acid group of pqca. In the aliphatic region of the spectrum, the carbon atoms from the CH3 groups of p-cymene ligand appear as intense singlets at δ 21.58, 21.21, and 18.18, respectively (Figures S12–S15).
as §4

Molecule: Cc1ccc(C(C)C)cc1.O=C(O)c1ccnc(-c2cc(C(=O)O)ccn2)c1.[Cl-].[Cl-].[Ru+2]
Selectivity among cell lines [1]: high selectivity toward carcinoma human T24 bladder cells

Molecule: Cc1ccc(C(C)C)cc1.Nc1ccccc1O.[Cl][Ru][Cl]
IC50 (HeLa cells [2]): 82.9 µM

Molecule: Cc1ccc(C(C)C)cc1.Nc1ccc(O)cc1.[Cl][Ru][Cl]
IC50 (HeLa cells [2]): 171 µM

Molecule: Cc1ccc(C(C)C)cc1.Cc1ccc(C(C)C)cc1.[Cl][Ru][Cl].[Cl][Ru][Cl] [[Ru(p-cymene)Cl2]2, [Ru(η^6-p-cymene)(μ-Cl)Cl]2]
IC50 (HeLa cells [3]): 48.9 ± 1.73 µM
IC50 (HEK293T cells): 48.3 ± 1.66 µM

Molecule: N.N.[Cl][Pt][Cl] [cis-platin, cisplatin, reference compound]
IC50 (HeLa cells [3]): 9.26 ± 1.09 µM
IC50 (HEK293T cells): 16.4 ± 7.62 µM

Molecule: [Ru(η^6-p-cymene)(pqca)Cl][Cl] [2-Cl]
IC50 (HeLa cells [3]): 162 ± 21.3 µM
Stability in the media used for the biological assays (UV-Vis) [4]: stable
Solubility (Solubility (qualitative)): soluble in polar organic solvents (MeOH, EtOH, water) including DMSO and DMF
Period of 1H NMR monitoring showing stability ([5]; DMSO-d6): more than 72 h
Stability in DMSO-d6 (1H NMR) ([5]; DMSO-d6): practically remains stable
IC50 (HEK293T cells): 180 ± 49.1 µM

Molecule: [Ru(η^6-p-cymene)(pqcame)Cl][Cl] [3-Cl]
IC50 (HeLa cells [3]): > 80 µM
Time until hydrolysis (UV-Vis, isosbestic points at 276 nm and 322 nm) ([4]; in water): approximately 3 h
Solubility (Solubility (qualitative)): dissolves in water, DMSO, and other polar solvents
IC50 (HEK293T cells): > 115 µM

Molecule: [Ru(η^6-p-cymene)(pqcame)Cl][PF6] [3-PF6]
IC50 (HeLa cells [3]): 134 ± 3.3 µM
IC50 (HEK293T cells): 145 ± 16.2 µM

Now from value to molecule, other results behind:

IC50 (HeLa cells [3]): 56.4 ± 12.7 µM
Molecule: 4-carboxymethyl-2-(pyridin-2-yl)quinoline [pqcame]
IC50 (HEK293T cells): 48.9 ± 3.19 µM

IC50 (HeLa cells [3]; Homo sapiens, HeLa): 100 ± 3.47 µM
Molecule: O=C(O)c1cc(-c2ccccn2)nc2ccccc12 [pqca, 4-carboxy-2-(pyridin-2-yl)quinoline]
IC50 (HEK293T cells; Homo sapiens, HEK-293T): 87.5 ± 1.3 µM

IC50 (HeLa cells [3]; Homo sapiens, HeLa): 12.8 ± 1.01 µM
Molecule: OCc1cc(-c2ccccn2)nc2ccccc12 [pqhyme, 4-hydroxymethyl-2-(pyridin-2-yl)quinoline]
IC50 (HEK293T cells; Homo sapiens, HEK-293T): 2.67 ± 1.23 µM

IC50 (HeLa cells [3]): 119 ± 1.29 µM
Stability in the media used for the biological assays (UV-Vis) [4]: stable
Stability in DMSO-d6 (1H NMR) ([5]; DMSO-d6): stable
Free p-cymene detected (1H NMR) ([5]; after two days of standing in CDCl3): ~2.6%
Molecule: [Ru(η^6-p-cymene)(pqhyme)Cl][Cl] [1-Cl]
Solubility (Solubility (qualitative)): dissolves in DMSO, and water and is less soluble in CHCl3

Source: article PMC11243419, “Ruthenium p-Cymene Complexes Incorporating Substituted Pyridine–Quinoline-Based Ligands: Synthesis, Characterization, and Cytotoxic Properties” (Molecules, 2024)
